Tests used:
[1] = system: TLR signaling proteins (TAK1, IRAK, Akt, p38-MAPK, PyK2, PKC, PI3K, ERK1/2); test: Reverse protein arrays / western blot of signaling after 15-HC; type: cell-based, mouse; conditions: microglia or macrophage cells, 1 μg/ml 15-HC
Method: 5A, a bar graph showing the time course of microglial PARP-1 activation by 15-oxysterols or 7-KC. PARP-1 activity is shown as Mean±SEM. 5B, a set of eight bar graphs showing signaling pathways activated by 15-HC. Microglial cells were stimulated with 15-HC and lysed at 1, 5, and 15 minutes. Signal transduction arrays were made with the lysates and probed with phospho-specific antibodies. 15a-HC increases the phosphorylation of TAK1 (top right), IRAK (top left), Akt (second row, left), p38 MAPK (second row, right), Pyk2 (third row, left), PKC (third row, right), PI3K (bottom row, left), and Erk1/2 (bottom row, right). (Mean±SEM) 5C, a bar graph showing activation of microglial PARP-1 by 15-HC in the presence of kinase inhibitors (Mean±SEM). […]
FIG. 8 is a set of eight pairs of bolts and bar graphs showing blockade of 15-HC triggered signaling pathways with blocking antibodies to TLR2. Microglial cells were incubated with […] of TLR2 blocking antibody or isotype control 45 minutes prior the addition of 15-HC to the medium and signal transduction events were analyzed by western blot. […]
The C8B4 microglial cell line, C8-D1A astrocytes and Raw 264.7 macrophages were purchased from ATCC (Manassas, Va., USA). […] Slides were then probed, processed and analyzed as previously described (Chan et al., Nat Med 10, 1390-1396 (2004)).

PARP-1 [2] = biological target: T1, PARP-1 (Homo sapiens, UniProt P09874); test: FACS-based detection of PARP-1 activity (PAR staining) in human monocytes / PBMCs; type: cell-based; design: endogenous in cells; host or cells: human PBMCs / monocytes / dendritic cells / T and B cells from healthy controls and MS patients
Method: FIGS. 11A-B are show the results of FACS-based detection of PARP-1 activity. 11A. a set of five histograms showing PAR staining (as detected by FACS) of PBMCs incubated with 15-HC alone, or in combination with AIQ, blocking antibodies to TLR2 (TLR2 BL), or IC control (TLR2 IC). 11B, a line graph showing the correlation of PAR staining as detected by FACS with PARP-1 enzymatic activity detected on PBMCs activated with different concentration of 15-HC.
14A is a set of fifteen histograms showing PAR staining of PBMCs taken from HC (left column), RRMS (center column) or SPMS (right column) patients and unstimulated (top row) or activated with 15-HC alone (second row), or in combination with AIQ (third row), blocking antibodies to TLR2 (fourth row) or IC control (bottom row). 14B is a bar graph showing the mean fluorescence intensity (MFI)±SD of 5 samples/group from the histograms in 14A.
15A is a set of 24 histograms showing PAR staining of PBMCs taken from HC (left column), RRMS (center column) or SPMS (right column) patients and unstimulated (top row) or activated with pgLPS (second row), polyIC (third row), ecLPS (fourth row), flagellin (row 5), imiquimod (row 6), ssRNA (row 7) or CpG (row 8). 15B is a bar graph showing the mean fluorescence intensity (MFI)±SD of 5 samples/group from the histograms in […].
A new FACS-based method was developed to detect PARP-1 activation based on the intracellular detection of the PARP-1 product PAR with specific antibodies. Briefly, the cells were incubated with antibodies to CD16/32 to block unspecific antibody binding, and then stained for surface markers. After washing, the cells were permeabilized with Fix/Perm (BD), and then stained with rabbit anti-PAR antibodies (or control rabbit IgG) for 30′ at 4° C., followed by anti-rabbit PE for 30′ at room temperature. The samples were then analyzed by FACS.
Target sequence in this assay (P09874 whole entry): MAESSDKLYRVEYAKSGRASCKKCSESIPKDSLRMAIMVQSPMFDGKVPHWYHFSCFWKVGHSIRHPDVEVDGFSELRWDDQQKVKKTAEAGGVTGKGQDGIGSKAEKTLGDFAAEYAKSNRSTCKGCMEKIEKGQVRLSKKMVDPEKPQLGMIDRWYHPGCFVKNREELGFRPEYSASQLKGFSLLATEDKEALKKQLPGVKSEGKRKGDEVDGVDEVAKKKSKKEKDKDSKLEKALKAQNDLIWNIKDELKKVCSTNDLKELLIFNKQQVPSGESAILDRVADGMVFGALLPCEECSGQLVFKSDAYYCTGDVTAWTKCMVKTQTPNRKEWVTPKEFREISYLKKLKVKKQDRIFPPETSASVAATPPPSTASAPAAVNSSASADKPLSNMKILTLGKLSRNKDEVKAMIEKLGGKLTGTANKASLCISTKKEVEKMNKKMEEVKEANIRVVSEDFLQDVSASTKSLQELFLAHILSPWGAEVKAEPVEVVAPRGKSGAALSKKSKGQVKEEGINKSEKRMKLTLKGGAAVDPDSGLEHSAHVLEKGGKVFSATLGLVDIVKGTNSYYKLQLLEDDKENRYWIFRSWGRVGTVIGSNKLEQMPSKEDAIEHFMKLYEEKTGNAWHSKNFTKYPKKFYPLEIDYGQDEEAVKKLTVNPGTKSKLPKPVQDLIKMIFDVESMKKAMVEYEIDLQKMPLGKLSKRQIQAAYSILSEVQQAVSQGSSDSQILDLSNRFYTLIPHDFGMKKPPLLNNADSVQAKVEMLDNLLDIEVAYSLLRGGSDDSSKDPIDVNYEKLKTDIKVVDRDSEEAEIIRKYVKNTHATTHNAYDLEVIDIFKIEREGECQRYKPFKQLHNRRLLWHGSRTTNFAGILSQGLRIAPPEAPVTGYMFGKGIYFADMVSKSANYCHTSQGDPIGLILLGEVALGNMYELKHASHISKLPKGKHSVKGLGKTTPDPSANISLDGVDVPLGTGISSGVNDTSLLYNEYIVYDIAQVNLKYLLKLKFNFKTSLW

PARP-1 [3] = biological target: T1, PARP-1; test: PARP-1 activity in a cell-free system with oxysterol-pretreated DNA; type: biochemical
Method: FIGS. 4A-D show the results of activation of microglia, macrophages and astrocytes by 15-HC. 4A, a bar graph showing PARP-1 activity in a cell-free system where recombinant PARP-1 was incubated with DNA which as been pretreated with 15-HC or 7-KC. Non-pretreated DNA was used as a negative control and ssb-DNA as a positive control. Data is shown as Mean±SEM. 4B, a pair of bar graphs showing PARP-1 activity measured in microglia, macrophages or astrocytes incubated with 15-HC or 7-KC. The data is shown as the fold of change between vehicle and lipid-treated cells (Mean±SEM). 4C, a pair of bar graphs showing percent inhibition of PARP-1 activity in microglia, macrophages or astrocytes activated with 15-HC or 7-KC […] in the presence of 5-AIQ. 4D, a table showing levels of TNF-α, CCL-2 and NO secretion by 15-HC or 7-KC treated microglia, macrophages or astrocytes (Mean±SEM).
Thus, the effect of 15-HC on PARP-1 activity was investigated using an in vitro system.
Target sequence in this assay (P09874 whole entry, species assumed): as the sequence (P09874 whole entry) above

## 15-hydroxycholestene [15-HC]
[1]
  phosphorylation of TAK1, IRAK, Akt, p38-MAPK, PyK2, PKC, PI3K and ERK1/2: resulted in the phosphorylation
PARP-1 [2]; all three experimental groups
  inhibition of 15-HC-induced PARP-1 activation in monocytes from healthy controls, RRMS and SPMS patients: could be inhibited
PARP-1 [2]; human monocytes activated by 15-HC
  PAR staining (FACS): significant increase
PARP-1 [3]; recombinant PARP-1 incubated with 15-HC alone
  PARP-1 activity, oxysterol alone: did not have a significant effect
PARP-1 [3]; recombinant PARP-1 plus DNA pretreated with 15-HC
  PARP-1 activity, DNA pre-incubated with oxysterol: levels comparable to those achieved with 7-KC or single strand break DNA

From patent publication US20140343095A1, “Methods of Diagnosing and Treating Multiple Sclerosis” (The Brigham and Women's Hospital, Inc., priority 2009, published 2014)
